Data from patent US11773381B2, “Cell penetrating peptide, conjugate comprising same, and composition comprising conjugate” (GemVax & KAEL CO., LTD., priority 2012, dated 2023).

test system: HeLa cell; test: Cell penetration of pep(CPP)-FITC conjugates in HeLa cell line, flow cytometry (FACS); format: cell-based, Homo sapiens; conditions: HeLa cells, 20 μM of each carrier peptide combined with FITC, 37° C. for an hour, control cells treated only FITC
Description: Homo sapiens cervix adenocarcinoma cell line as HeLa cell lines were purchased from ATCC (American Type Cell Culture). The cells were cultured in MEM supplemented with 10% fetal bovine serum (Invitrogen, USA), Earle's salts, non-essential amino acids, sodium pyruvate and 100 μg/ml penicillin and 10 units/ml streptomycin and cultured at 37° C., 5% CO2 incubator.
Flow cytometry and Confocal microscope analysis were performed to compare the between degree of cellular uptake of the cells were treated with SEQ ID NO: 1 to SEQ ID NO: 156, pep (CPP) and control.
The cell line was divided in a 6-well plate and cultured in a medium containing 10% fetal bovine serum (Invitrogen, USA), […] at 37° C., 5% CO2 incubator for 12 hours. After washing the cell line with PBS, starvation was induced in a Minimum Essential Medium for an hour. 20 μM of each carrier peptide was treated and cultured at 37° C. for an hour. After repeating the step of washing the cells with PBS for three times, Trypsin-EDTA was treated form 10 mins at 37° C. to separate the carrier peptide on the outside of the cell. cells were collected with refrigerated PBS and centrifugation was performed to repeat the step of washing the cells for three times. After then, the cells were suspended in 0.5 ml of PBS containing 4% Paraformaldehyde and fluorescence of the cells was analyzed using FACS Calibur (Becton Dickinson). The cellular uptake aspect of control and various peptides combined with FITC was compared and analyzed by MFI (Mean Fluorescence Intensity).
Analysis results shown in FIG. 1 to FIG. 23 are given in detail in Table 3 below.

Sequence	cellular uptake, MFI (Mean Fluorescence Intensity)
RPALLTSRLRFIPKP (listed as Homo sapiens) [pep41]	28.97 ± 3.44
RPGLLGASVL (listed as Homo sapiens) [pep21]	13.22 ± 1.67
RPIVNMDYVVGARTFRREKR (listed as Homo sapiens) [pep139]	29.95 ± 0.28
RPSLTGARRLVETIFLGSRP (listed as Homo sapiens) [pep125]	28.62 ± 2.12
RQHHAGPPSTSRPPRPWDTP (listed as Homo sapiens) [pep65]	12.72 ± 1.36
RRPGLLGAS (listed as Homo sapiens) [pep28]	14.08 ± 3.11
RRPGLLGASVLGLDDIHRAW (listed as Homo sapiens) [pep141]	20.89 ± 0.31
RRSPGVGCVPAAEHRLREEI (listed as Homo sapiens) [pep76]	13.98 ± 0.11
RSLLRSHYREVLPLATFVRR (listed as Homo sapiens) [pep108]	22.53 ± 0.95
RTFRREKRAERLTSR (listed as Homo sapiens) [pep43]	29.88 ± 2.35
RTFVLRVRAQDPPPE (listed as Homo sapiens) [pep8]	17.75 ± 1.96
RTRGPSDRGFCVVSPARPAE (listed as Homo sapiens) [pep63]	21.3 ± 1.55
SGPRRRLGCERAWNHSVREA (listed as Homo sapiens) [pep117]	23.11 ± 2.46
SHVSTLTDLQPYMRQFVAHL (listed as Homo sapiens) [pep88]	16.43 ± 0.55
SLCYSILKAKNAGMSLGAKG (listed as Homo sapiens) [pep102]	45.84 ± 1.58
SLPLPKRPRRGAAPEPERTP (listed as Homo sapiens) [pep119]	13.23 ± 0.64
SRPPRPWDTPCPPVYAETKH (listed as Homo sapiens) [pep123]	18.03 ± 2.83
SVLGLDDIH (listed as Homo sapiens) [pep31]	14.93 ± 2.05
SVLGLDDIHR (listed as Homo sapiens) [pep17]	15.26 ± 2.23
SVLNYERAR (listed as Homo sapiens) [pep24]	13.78 ± 1.07

Sequence	cellular uptake, MFI (Mean Fluorescence Intensity)
SVLNYERARR (listed as Homo sapiens) [pep16]	20.12 ± 1.84
SVLNYERARRPGLLG (listed as Homo sapiens) [pep3]	18.23 ± 3.21
SYLPNTVTDALRGSGAWGLL (listed as Homo sapiens) [pep56]	28.61 ± 0.44
THCPLRAAVTPAAGVCAREK (listed as Homo sapiens) [pep128]	14.36 ± 1.21
TKKFISLGKHAKLSLQELTW (listed as Homo sapiens) [pep132]	26.39 ± 0.95
TQLSRKLPGTTLTALEAAAN (listed as Homo sapiens) [pep105]	13.23 ± 2.21
VAQCLVCVPWDARPPPAAPS (listed as Homo sapiens) [pep110]	22.04 ± 0.77
VARVLQRLCERGAKNVLAFG (listed as Homo sapiens) [pep54]	388.45 ± 2.94
VETIFLGSRPWMPGTPRRLP (listed as Homo sapiens) [pep68]	27.28 ± 1.28
VLGLDDIHR (listed as Homo sapiens) [pep23]	15.68 ± 2.03
VLGLDDIHRA (listed as Homo sapiens) [pep13]	14.01 ± 1.32
VLNYERARR (listed as Homo sapiens) [pep25]	18.62 ± 0.69
VLPLATFVRRLGPQGWRLVQ (listed as Homo sapiens) [pep51]	59.81 ± 1.38
VRRYAVVQKAAHGEVRKAFK (VRRYAVVQKAAHGHVRKAFK; listed as Homo sapiens) [pep87]	38.35 ± 2.27
VTETTFQKNRLFFYR (listed as Homo sapiens) [pep37]	20.81 ± 1.02
WMPGTPRRLPRLPQRYWQMR (listed as Homo sapiens) [pep126]	3362.29 ± 3.24
WSKLQSIGIRQHLKRVQLRE (listed as Homo sapiens) [pep79]	31.2 ± 1.52
YERARRPGL (listed as Homo sapiens) [pep11]	10.46 ± 1.99
YERARRPGLL (listed as Homo sapiens) [pep20]	20.73 ± 2.45
